Values quoted from earlier work, collected in patent publication US11723868B2, “Biodegradable polymer microsphere compositions for parenteral administration” (Adare Pharmaceuticals USA, Inc., priority 2016, dated 2023).

Columns and labels:
[1] = properties of drugs used, Table B
[2] = properties of drugs used, Table B; remark: listed apart in the source

Which results are given for `COc1cc2c(cc1Cc1cccc(Cl)c1F)c(=O)c(C(=O)O)cn2[C@H](CO)C(C)C` [Drug A, Elvitegravir]?
logP [1]: 4.67; Water Solubility [2]: <3 µg/mL

For `C#C[C@]1(O)CC[C@H]2[C@@H]3CCC4=CC(=O)CC[C@@H]4[C@H]3C(=C)C[C@@]21CC` [Drug C, Etonogestrel], which logP [1] is on record?
The logP was 3.40.

And the “Water Solubility” value [2]?
The value was <7 µg/mL.

For `C[C@@H](O)[C@@H]1NC(=O)[C@H](CCCCN)NC(=O)[C@@H](Cc2c[nH]c3ccccc23)NC(=O)[C@H](Cc2ccccc2)NC(=O)[C@@H](NC(=O)[C@H](N)Cc2ccccc2)CSSC[C@@H](C(=O)N[C@H](CO)[C@@H](C)O)NC1=O` [Drug D, Octreotide], which “Water Solubility” value [2] is on record?
Its value is >10000 µg/mL.
